The record followed here is US20170100320A1, “COMPOSITION FOR EXTERNAL USE SKIN PREPARATION, CONTAINING THIOREDOXIN” (Amorepacific Corporation, priority 2012, published 2017).

Assay type in all cases: cell-based
The target of series [1] is T1, 5α-reductase in HEK293-5αR2 cells (Homo sapiens, UniProt P31213).
T1 construct: 3xFLAG; expressed in transfected cells; host or cells: HEK293 (Human Embryonic Kidney 293)
T1 sequence (P31213 1-254): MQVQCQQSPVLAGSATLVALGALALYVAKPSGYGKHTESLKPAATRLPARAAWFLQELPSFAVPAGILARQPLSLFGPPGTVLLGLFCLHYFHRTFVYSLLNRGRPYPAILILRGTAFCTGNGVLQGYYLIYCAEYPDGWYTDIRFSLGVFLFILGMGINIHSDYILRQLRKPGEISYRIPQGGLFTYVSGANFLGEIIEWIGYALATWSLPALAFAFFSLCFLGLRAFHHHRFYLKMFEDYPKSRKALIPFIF
Kind of series: Inhibition of 5α-reductase activity ([14C]testosterone to [14C]dihydrotestosterone conversion). The conditions noted are these: 2 hours incubation at 37° C.; for Conversion (%): testosterone to DHT. How it is done:
In order to examine the effect of inhibiting 5α-reductase activity, the ratio of [^14C]testosterone-to-[^14C]dihydrotestosteron conversion in Human Embryonic Kidney 293(HEK293)-5αR2 cells was measured. HEK293 cells transfected with plasmid p3×FLAG-CMV™-5αR2 were added to a 24-well plate at a density of 2.5×10^5cells/well and cultured (Park et al., 2003, J. Dermatological Science. Vol. 31, pp. 91-98). The next day, the medium was replaced with a fresh medium containing an enzyme substrate and an inhibitor. As the substrate of the medium, 0.05 μCi [^14C]testosterone (Amersham Pharmacia Biotech, UK) was used.
In order to measure the degree of inhibition of 5α-reductase activity, thioredoxin was added to the cells which were then incubated in a 5% CO2 incubator at 37° C. for 2 hours. At the same time, a medium containing no thioredoxin was used as a negative, and a medium containing finasteride was used as a positive control. Next, the culture medium was collected, and steroid was extracted with 800 μl of ethyl acetate. The upper organic solvent layer was separated and dried, and the remaining material was dissolved in 50 μl of ethyl acetate and developed on silica plastic sheet kieselgel 60 F254 using ethyl acetate-hexane (1:1) as a developing solvent.
The plastic sample was dried in air, and the amount of isotopes was measured using a Vas system. Specifically, the dried plastic sheet together with an X-ray film was placed in a Vas cassette, and after 1 week, the amounts of the testosterone and dihydrotestosterone (DHT) isotopes were measured, and then the percent conversion and the percent inhibition were measured using the following equations 1 and 2, respectively.
Conversion (%)=radioactivity in the DHT region/total radioactivity×100
Inhibition (%)=(conversion of control−conversion of sample)/conversion of control×100

The next series concerns fibroblasts. Kind of series: Stimulation of collagen biosynthesis (procollagen type (I) ELISA). The conditions noted are these: 24 hours; relative to control = 100%; TGF-beta 10 ng/ml. The procedure:
The effect of thioredoxin of the present invention on the stimulation of collagen biosynthesis was measured in comparison with TGF-beta.
First, fibroblasts were seeded into a 24-well plate at a density of 10^5cells/well and cultured in serum-free DMEM medium for 24 hours to a confluence of about 90%. Then, the cells were treated with each of a solution of thioredoxin of the present invention and 10 ng/ml of TGF-beta dissolved in serum-free medium and incubated in a CO2 incubator for 24 hours. The supernatants of the cell cultures were collected and the amount of procollagen therein was measured using a procollagen type (I) ELISA kit. The values of collagen synthesis (%) in Table 8 are expressed as percentages relative to the control taken as 100%.
(In general: In an ELISA, binding on a coated surface is turned into a signal by an enzyme label.)

The next series concerns human keratinocytes. Kind of series: Stimulation of keratinocyte differentiation (cornified envelope protein, absorbance 340 nm). The conditions noted are these: 5 days culture; thioredoxin 5 ppm; low-calcium negative control = 100. How it is done:
In order to examine the effect of thioredoxin on the stimulation of differentiation of keratinocytes, the amount of cornified envelope (CE) protein produced during the differentiation of keratinocytes was measured by absorbance in the following manner.
Specifically, human keratinocytes, isolated from the […] of newborns and primarily cultured, were placed in a culture flask and attached to the bottom. Then, the cells were cultured with a medium containing 5 ppm of thioredoxin for 5 days until the cells reached to a confluence of about 70-80%. At the same time, a low calcium (0.03 mM)-treated group and a high calcium (1.2 mM)-treated group were used as a negative control group and a positive control group, respectively. Then, the cultured cells were harvested and washed with PBS (phosphate buffered saline). Then, the cells were sonicated in 1 ml of 10 mM Tris-HCl (pH 7.4) containing 2% SDS (sodium dodecyl sulfate) and 20 mM DTT (dithiothreitol), boiled and centrifuged. The precipitate was suspended in 1 ml of PBS, and the absorbance at 340 nm was measured. Separately, a portion of the solution following the sonication was taken, and the protein content thereof was measured as a reference for evaluating the degree of differentiation of the cells.

Consider `CC(C)(C)NC(=O)[C@H]1CC[C@H]2[C@@H]3CC[C@H]4NC(=O)C=C[C@]4(C)[C@H]3CC[C@]12C` [Positive control, finasteride, reference compound], for which the “Conversion (%)” value in series [1] is 27.6%.
TGF-β [reference compound]: the “Collagen synthesis (%)” value with fibroblasts is listed as 183.5%.
As for Thioredoxin, the “Degree (%) of differentiation of keratinocytes” value in the series on human keratinocytes is recorded as 295%. The “Inhibition (%)” value in series [1] (relative to conversion of control) is 60.8%. The “Conversion (%)” value in series [1] worked out at 15.9%. In the series on fibroblasts, the “Collagen synthesis (%)” value was found to be 196.2%.
